Results on 19 compounds are retold here after US10653146B2, “Microbiocidal oxadiazole derivatives” (SYNGENTA PARTICIPATIONS AG, priority 2016, dated 2020).

Bounds are passed on as bounds.

Data set [1] deals with Glomerella lagenarium (Colletotrichum lagenarium). The data set can be described thus: Fungicidal activity against Glomerella lagenarium (Colletotrichum lagenarium) liquid culture / cucumber / preventative (anthracnose). It counts as cell-based. The following applies: Colletotrichum orbiculare; 20 ppm in the applied formulation; liquid culture in PDB, 24° C.; 3 to 4 days after application; read-out: disease control compared to untreated control (inhibition of growth measured photometrically). Here is the method:
Mycelia fragments or conidia suspensions of a fungus prepared either freshly from liquid cultures of the fungus or from cryogenic storage, are directly mixed into nutrient broth. DMSO solutions of the test compound (max. 10 mg/ml) are diluted with 0.025% Tween20 by a factor of 50 and 10 μl of this solution is pipetted into a microtiter plate (96-well format). The nutrient broth containing the fungal spores/mycelia fragments is then added to give an end concentration of the tested compound. The test plates are incubated in the dark at 24° C. and 96% relative humidity. The inhibition of fungal growth is determined photometrically after 2 to 7 days, depending on the pathosystem, and percent antifungal activity relative to the untreated check is calculated.
Conidia of the fungus from cryogenic storage are directly mixed into nutrient broth (PDB—potato dextrose broth). After placing a (DMSO) solution of test compound into a microtiter plate (96-well format), the nutrient broth containing the fungal spores is added. The test plates are incubated at 24° C. and the inhibition of growth is measured photometrically 3 to 4 days after application.
The following compounds at 20 ppm in the applied formulation give at least 80% disease control in this test when compared to untreated control under the same conditions, which show extensive disease development.

In data set [2] the test system is Puccinia recondita f. Sp. Tritici. The data set can be described thus: Fungicidal activity against Puccinia recondita f. sp. tritici / wheat / leaf disc preventative (brown rust). Type of data set: in vivo. The following applies: foliar, 200 ppm in the applied formulation, wheat leaf segments cv. Kanzler, inoculated 1 day after application, assessed 7 to 9 days after application, read-out: disease control compared to untreated control leaf disks. Here is the method:
Leaf disks or leaf segments of various plant species are cut from plants grown in a greenhouse. The cut leaf disks or segments are placed in multiwell plates (24-well format) onto water agar. The leaf disks are sprayed with a test solution before (preventative) or after (curative) inoculation. Compounds to be tested are prepared as DMSO solutions (max. 10 mg/ml) which are diluted to the appropriate concentration with 0.025% Tween20 just before spraying. The inoculated leaf disks or segments are incubated under defined conditions (temperature, relative humidity, light, etc.) according to the respective test system. A single evaluation of disease level is carried out 3 to 14 days after inoculation, depending on the pathosystem. Percent disease control relative to the untreated check leaf disks or segments is then calculated. Wheat leaf segments cv. Kanzler were placed on agar in multiwell plates (24-well format) and sprayed with the formulated test compound diluted in water. The leaf disks were inoculated with a spore suspension of the fungus 1 day after application. The inoculated leaf segments were incubated at 19° C. and 75% relative humidity (rh) under a light regime of 12 hours light/12 hours darkness in a climate cabinet and the activity of a compound was assessed as percent disease control compared to untreated when an appropriate level of disease damage appears in untreated check leaf segments (7 to 9 days after application). The following compounds at 200 ppm in the applied formulation give at least 80% disease control in this test when compared to untreated control leaf disks under the same conditions, which show extensive disease development.

For data set [3], the system named is Puccinia recondite f. Sp. Tritici. The data set can be described thus: Fungicidal activity against Puccinia recondite f. sp. tritici / wheat / leaf disc curative (brown rust). The following applies: foliar, 200 ppm in the applied formulation, wheat leaf segments cv. Kanzler, applied 1 day after inoculation, assessed 6 to 8 days after application, read-out: disease control compared to untreated control leaf disks. Type of data set: in vivo. Here is the method:
Leaf disks or leaf segments of various plant species are cut from plants grown in a greenhouse. The cut leaf disks or segments are placed in multiwell plates (24-well format) onto water agar. The leaf disks are sprayed with a test solution before (preventative) or after (curative) inoculation. Compounds to be tested are prepared as DMSO solutions (max. 10 mg/ml) which are diluted to the appropriate concentration with 0.025% Tween20 just before spraying. The inoculated leaf disks or segments are incubated under defined conditions (temperature, relative humidity, light, etc.) according to the respective test system. A single evaluation of disease level is carried out 3 to 14 days after inoculation, depending on the pathosystem. Percent disease control relative to the untreated check leaf disks or segments is then calculated.
Wheat leaf segments cv. Kanzler are placed on agar in multiwell plates (24-well format). The leaf segments are then inoculated with a spore suspension of the fungus. Plates were stored in darkness at 19° C. and 75% relative humidity. The formulated test compound diluted in water was applied 1 day after inoculation. The leaf segments were incubated at 19° C. and 75% relative humidity under a light regime of 12 hours light/12 hours darkness in a climate cabinet and the activity of a compound was assessed as percent disease control compared to untreated when an appropriate level of disease damage appears in untreated check leaf segments (6 to 8 days after application).
The following compounds at 200 ppm in the applied formulation give at least 80% disease control in this test when compared to untreated control leaf disks under the same conditions, which show extensive disease development.

On to `O=C(NCCO)C(=O)c1ccc(-c2noc(C(F)(F)F)n2)cc1` [Compound 1.1, N-(2-hydroxy-ethyl)-2-oxo-2-[4-[5-(trifluoromethyl)-1,2,4-oxadiazol-3-yl]phenyl]acetamide], for which the melting point (in general, the temperature, or range, at which the solid turns liquid) was 147 to 148 °C. For the same compound, the inhibition (commonly the change of the read-out against control, counted positive when it falls) at 20 ppm in data set [1] is ≥ 80%. Further, in data set [2], the pest or weed control at 200 ppm is ≥ 80%. The pest or weed control at 200 ppm in data set [3] was ≥ 80%.

For `CN(C)CCNC(=O)C(=O)c1ccc(-c2noc(C(F)(F)F)n2)cc1` [Compound 1.2, N-[2-(dimethyl-amino)ethyl]-2-oxo-2-[4-[5-(trifluoromethyl)-1,2,4-oxadiazol-3-yl]phenyl]acetamide], the inhibition at 20 ppm in data set [1] was ≥ 80%.

For `CON1CCN(C(=O)C(=O)c2ccc(-c3noc(C(F)(F)F)n3)cc2)CC1` [Compound 1.3, 1-(4-methoxypiperazin-1-yl)-2-[4-[5-(trifluoromethyl)-1,2,4-oxadiazol-3-yl]phenyl]ethane-1,2-dione], in data set [1], the inhibition at 20 ppm was ≥ 80%. In addition, in data set [2], the pest or weed control at 200 ppm is ≥ 80%.

`O=C(NOCC(F)F)C(=O)c1ccc(-c2noc(C(F)(F)F)n2)cc1` [Compound 1.4, N-(2,2-difluoroethoxy)-2-oxo-2-[4-[5-(trifluoromethyl)-1,2,4-oxadiazol-3-yl]phenyl]acetamide]: the inhibition at 20 ppm in data set [1] was ≥ 80%. Besides, in data set [2], the pest or weed control at 200 ppm is ≥ 80%.

Take `CN(C)C(=O)C(=O)c1ccc(-c2noc(C(F)(F)F)n2)cc1` [Compound 1.5, N,N-dimethyl-2-oxo-2-[4-[5-(trifluoromethyl)-1,2,4-oxadiazol-3-yl]phenyl]acetamide]: the inhibition at 20 ppm in data set [1] was ≥ 80%. The pest or weed control at 200 ppm in data set [2] and in data set [3] was ≥ 80% each time.

Regarding `C=CCONC(=O)C(=O)c1ccc(-c2noc(C(F)(F)F)n2)cc1` [Compound 1.6, N-allyloxy-2-oxo-2-[4-[5-(trifluoromethyl)-1,2,4-oxadiazol-3-yl]phenyl]acetamide], in data set [2], the pest or weed control at 200 ppm is ≥ 80%.

In the case of `CNC(=O)CNC(=O)C(=O)c1ccc(-c2noc(C(F)(F)F)n2)cc1` [Compound 1.7, N-[2-(methyl-amino)-2-oxo-ethyl]-2-oxo-2-[4-[5-(trifluoromethyl)-1,2,4-oxadiazol-3-yl]phenyl]acetamide], the melting point is 167 to 168 °C. Also, in data set [1], the inhibition at 20 ppm is ≥ 80%. In addition, in data set [2], the pest or weed control at 200 ppm was ≥ 80%. Also, the pest or weed control at 200 ppm in data set [3] was ≥ 80%.

`O=C(NCCNC(=O)C1CC1)C(=O)c1ccc(-c2noc(C(F)(F)F)n2)cc1` [Compound 1.8, N-[2-[[2-oxo-2-[4-[5-(trifluoromethyl)-1,2,4-oxadiazol-3-yl]phenyl]acet-yl]amino]eth-yl]cyclopropane-carboxamide] showed a melting point of 209 to 210 °C. Besides, the inhibition at 20 ppm in data set [1] is ≥ 80%. Besides, the pest or weed control at 200 ppm in data set [2] was ≥ 80%.

In the case of `O=C(NCC(F)F)C(=O)c1ccc(-c2noc(C(F)(F)F)n2)cc1` [Compound 1.10, N-(2,2-difluoroethyl)-2-oxo-2-[4-[5-(trifluoromethyl)-1,2,4-oxadiazol-3-yl]phenyl]acetamide], the inhibition at 20 ppm in data set [1] is ≥ 80%. In addition, the pest or weed control at 200 ppm in data set [2] and in data set [3] was ≥ 80% in each case.

Consider `CC(=O)NCCNC(=O)C(=O)c1ccc(-c2noc(C(F)(F)F)n2)cc1` [Compound 1.11, N-(2-acetamidoethyl)-2-oxo-2-[4-[5-(trifluoromethyl)-1,2,4-oxadiazol-3-yl]phenyl]acetamide], for which the inhibition at 20 ppm in data set [1] is ≥ 80%. Further, the pest or weed control at 200 ppm in data set [2] and in data set [3] was ≥ 80% throughout.

On to `CCCN(C)C(=O)C(=O)c1ccc(-c2noc(C(F)(F)F)n2)cc1` [Compound 1.22, N-methyl-2-oxo-N-propyl-2-[4-[5-(trifluoromethyl)-1,2,4-oxadiazol-3-yl]phenyl]acetamide], for which the inhibition at 20 ppm in data set [1] was ≥ 80%. In addition, the pest or weed control at 200 ppm in data set [2] and in data set [3] was ≥ 80% each time.

In the case of `CSCCNC(=O)C(=O)c1ccc(-c2noc(C(F)(F)F)n2)cc1` [Compound 1.23, N-(2-methyl-sulfanylethyl)-2-oxo-2-[4-[5-(trifluoromethyl)-1,2,4-oxadiazol-3-yl]phenyl]acetamide], in data set [1], the inhibition at 20 ppm was ≥ 80%. Besides, the pest or weed control at 200 ppm in data set [2] and in data set [3] was ≥ 80% throughout.

For the compound `O=C(NCC1COCCO1)C(=O)c1ccc(-c2noc(C(F)(F)F)n2)cc1` (stereo not drawn) [Compound 1.28, N-(1,4-dioxan-2-ylmethyl)-2-oxo-2-[4-[5-(trifluoromethyl)-1,2,4-oxadiazol-3-yl]phenyl]acetamide], in data set [1], the inhibition at 20 ppm is ≥ 80%. Also, the pest or weed control at 200 ppm in data set [2] and in data set [3] was ≥ 80% throughout.

As for `Cc1ccsc1CN(C)C(=O)C(=O)c1ccc(-c2noc(C(F)(F)F)n2)cc1` [Compound 1.29, N-methyl-N-[(3-methyl-2-thienyl)methyl]-2-oxo-2-[4-[5-(trifluoromethyl)-1,2,4-oxadiazol-3-yl]phenyl]acetamide], in data set [1], the inhibition at 20 ppm was ≥ 80%.

As for `COCCN(CCOC)C(=O)C(=O)c1ccc(-c2noc(C(F)(F)F)n2)cc1` [Compound 1.30, N,N-bis(2-methoxyethyl)-2-oxo-2-[4-[5-(trifluoromethyl)-1,2,4-oxadiazol-3-yl]phenyl]acetamide], the inhibition at 20 ppm in data set [1] was ≥ 80%. The pest or weed control at 200 ppm in data set [3] is ≥ 80%.

Consider `CCON(C)C(=O)C(=O)c1ccc(-c2noc(C(F)(F)F)n2)cc1` [Compound 1.32, N-ethoxy-N-methyl-2-oxo-2-[4-[5-(trifluoromethyl)-1,2,4-oxadiazol-3-yl]phenyl]acetamide], for which the inhibition at 20 ppm in data set [1] was ≥ 80%. The pest or weed control at 200 ppm in data set [2] and in data set [3] was ≥ 80% throughout.

For the compound `CN(C(=O)C(=O)c1ccc(-c2noc(C(F)(F)F)n2)cc1)c1ccccc1` [Compound 1.33, N-methyl-2-oxo-N-phenyl-2-[4-[5-(trifluoromethyl)-1,2,4-oxadiazol-3-yl]phenyl]acetamide], in data set [1], the inhibition at 20 ppm was ≥ 80%.

Take `COC(=O)CNC(=O)C(=O)c1ccc(-c2noc(C(F)(F)F)n2)cc1` [Compound 1.36, methyl 2-[[2-oxo-2-[4-[5-(trifluoromethyl)-1,2,4-oxadiazol-3-yl]phenyl]acet-yl]amino]acetate]: the melting point is 89 to 90 °C. Besides, in data set [1], the inhibition at 20 ppm is ≥ 80%. The pest or weed control at 200 ppm in data set [3] was ≥ 80%.

On to `COCCNC(=O)C(=O)c1ccc(-c2noc(C(F)(F)F)n2)cc1` [Compound 1.40, N-(2-methoxy-ethyl)-2-oxo-2-[4-[5-(trifluoromethyl)-1,2,4-oxadiazol-3-yl]phenyl]acetamide], for which the inhibition at 20 ppm in data set [1] was ≥ 80%. For the same compound, the pest or weed control at 200 ppm in data set [2] and in data set [3] was ≥ 80% each time.
